The values below come from US9981897B2, “Ethers of bis(hydroxymethyl)cyclohexanes” (BASF SE, priority 2011, dated 2018).

Data set [1] can be described thus: stability of the ether groups. Format: physicochemical.
Data set [2] is described as follows: toxicological assessment.
Data set [3] can be described thus: dissolution / solvent properties for ingredients of fragrance-comprising preparations. The note with it: for customary ingredients in fragrance-comprising preparations. It is filed as physicochemical. From the text: The term “exceptional dissolution properties” refers to the solubility and also the solubilization in the perfumery application, i.e. both in the perfume oil itself, and also in the application matrix, such as soaps, creams, deodorants and others.
“Exceptional” dissolution properties are present for example if virtually all customary substances which can be used in such formulations are soluble in the solvent. “Good” dissolution properties are present if virtually all important substances which are used in such formulations are soluble in this solvent. “Moderate” dissolution properties are present if only a small fraction of the important substances is soluble or dispersible. Such substances, their importance and also the testing of the solubility in solvents are known to the person skilled in the art.

On to `CCOCC1CCC(COCC)CC1` (stereo not drawn) [Compound I, cyclohexanedimethanol diethyl ether], for which the “stability of the ether groups” value in data set [1] was “very high”. The toxicological properties entry in data set [2] was “toxicologically acceptable”.
As to `CCOC[C@H]1CC[C@H](COCC)CC1` [Compound I-trans, Trans-1,4-Cyclohexanedimethanol Diethyl Ether], the dissolution properties entry in data set [3] is recorded as “exceptional”.
